In US8415469B2, “Compounds and methods for kinase modulation, and indications therefor” (Plexxikon Inc., priority 2005, dated 2013):

Legend:
Type in all cases: biochemical
Stk6 = molecular target: T1, Stk6 (Homo sapiens, UniProt O14965); test: Z'-Lyte FRET kinase assay (Invitrogen), Stk6; conditions: read-out: IC50, activity toward kinase Stk6
T1 construct: purchased Invitrogen (Carlsbad, Calif.), screening service
T1 sequence (O14965 1-403): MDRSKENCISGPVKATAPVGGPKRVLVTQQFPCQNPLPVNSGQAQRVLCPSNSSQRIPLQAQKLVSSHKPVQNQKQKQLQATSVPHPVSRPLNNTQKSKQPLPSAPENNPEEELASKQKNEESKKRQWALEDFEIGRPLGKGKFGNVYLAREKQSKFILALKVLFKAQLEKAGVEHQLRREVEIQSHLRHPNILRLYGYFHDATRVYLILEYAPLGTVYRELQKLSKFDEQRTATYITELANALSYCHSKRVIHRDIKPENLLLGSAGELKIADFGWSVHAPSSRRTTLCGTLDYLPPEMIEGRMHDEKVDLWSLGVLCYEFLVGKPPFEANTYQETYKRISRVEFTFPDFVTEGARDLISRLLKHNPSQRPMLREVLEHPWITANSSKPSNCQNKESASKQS

Kdr = molecular target: T2, Kdr (Homo sapiens, UniProt P35968); test: Z'-Lyte FRET kinase assay (Invitrogen), Kdr; conditions: read-out: IC50, activity toward kinase Kdr
T2 construct: purchased Invitrogen (assay run by Invitrogen)

IGF1R = IGF1R (Homo sapiens, UniProt P08069); test: AlphaScreen kinase assay, IGF1R; conditions: read-out: IC50, activity toward kinase IGF1R
Btk = molecular target: T3, Btk (Homo sapiens, UniProt Q06187); test: Z'-Lyte FRET kinase assay (Invitrogen), Btk; conditions: read-out: IC50, activity toward kinase Btk
T3 construct: purchased Invitrogen (assay run by Invitrogen)

Ret = molecular target: T4, Ret (Homo sapiens, UniProt P07949); test: AlphaScreen kinase assay, Ret; conditions: read-out: IC50, activity toward kinase Ret
T4 construct: P1378.pET-SF BI-PTP RET H661-R1012 HIS; made in house
T4 sequence (P07949 with tags, fused parts or gaps): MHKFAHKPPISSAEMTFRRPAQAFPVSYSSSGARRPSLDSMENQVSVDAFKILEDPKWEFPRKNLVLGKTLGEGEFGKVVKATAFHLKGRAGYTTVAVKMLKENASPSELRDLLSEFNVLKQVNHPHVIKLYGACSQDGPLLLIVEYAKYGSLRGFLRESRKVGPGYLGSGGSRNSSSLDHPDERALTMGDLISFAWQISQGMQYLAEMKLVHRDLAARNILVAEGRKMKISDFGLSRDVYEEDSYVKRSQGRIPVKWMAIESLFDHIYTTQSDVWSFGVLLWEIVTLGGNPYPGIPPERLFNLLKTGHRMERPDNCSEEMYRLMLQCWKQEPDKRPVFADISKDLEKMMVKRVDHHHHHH

IKK beta = molecular target: T5, IKK beta (Homo sapiens, UniProt O14920); test: AlphaScreen kinase assay, IKK beta; conditions: read-out: IC50, activity toward kinase IKK beta
T5 sequence (O14920 1-756): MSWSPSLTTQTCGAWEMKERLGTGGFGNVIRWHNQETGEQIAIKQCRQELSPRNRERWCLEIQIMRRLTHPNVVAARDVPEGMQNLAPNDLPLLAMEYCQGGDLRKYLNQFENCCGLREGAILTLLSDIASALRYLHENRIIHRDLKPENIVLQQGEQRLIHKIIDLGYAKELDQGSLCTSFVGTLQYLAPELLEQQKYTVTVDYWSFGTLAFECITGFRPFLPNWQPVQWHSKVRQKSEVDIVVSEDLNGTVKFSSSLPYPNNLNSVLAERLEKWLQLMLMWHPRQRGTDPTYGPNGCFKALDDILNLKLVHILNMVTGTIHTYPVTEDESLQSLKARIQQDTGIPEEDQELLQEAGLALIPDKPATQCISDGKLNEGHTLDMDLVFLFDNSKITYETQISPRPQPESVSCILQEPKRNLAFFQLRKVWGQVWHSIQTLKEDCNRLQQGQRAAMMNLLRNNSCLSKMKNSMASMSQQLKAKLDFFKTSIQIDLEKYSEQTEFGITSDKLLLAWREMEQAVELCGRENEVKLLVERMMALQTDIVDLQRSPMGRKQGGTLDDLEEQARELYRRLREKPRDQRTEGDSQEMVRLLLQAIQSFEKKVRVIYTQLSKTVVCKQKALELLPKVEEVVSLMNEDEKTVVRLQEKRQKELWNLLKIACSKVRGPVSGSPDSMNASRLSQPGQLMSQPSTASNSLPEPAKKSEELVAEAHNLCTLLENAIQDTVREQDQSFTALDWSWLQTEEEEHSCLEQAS

B-Raf V600E = molecular target: T6, B-Raf V600E (Homo sapiens, UniProt P15056, V600E); test: AlphaScreen kinase assay, B-Raf V600E; conditions: read-out: IC50, activity toward kinase B-Raf V600E
T6 construct: P4254. pFastBacBD-CDC37 BRAF D437-K722-X, V600E; His6 with pFastBac HT leader (TEV site) (N); made in house; host or cells: Sf9 (baculovirus; chaperone CDC37 co-expressed)

Plk1 = Plk1 (Homo sapiens, UniProt P53350); test: AlphaScreen kinase assay, Plk1; conditions: read-out: IC50, activity toward kinase Plk1
Description: (§1) AlphaScreen assay was used to screen additional kinases. The assay is similarly dependent on the phosphorylation of a peptide substrate. In this assay, an antibody that recognizes phosphorylated substrate is bound to an acceptor bead. The peptide substrate is attached to biotin, which binds to a donor head that contains streptavidin. Thus phosphorylated substrate is bound by antibody and streptavidin, bringing the donor and acceptor heads into close proximity when kinase is not inhibited. The donor produces singlet oxygen which results in emission from the acceptor when they are in close proximity. Conversely, when kinase is inhibited, the donor and acceptor beads are not associated and the emission from the acceptor is reduced.
(§2) AlphaScreen assays were done using compounds dissolved in DMSO to a concentration of 20 mM. The compounds were diluted accordingly to the desired final concentrations in each sample well, using 1:3 serial dilution for a total of 8 concentration points.

Gsk3β = Gsk3β (Homo sapiens, UniProt P49841); test: AlphaScreen kinase assay, Gsk3β; conditions: read-out: IC50, activity toward kinase Gsk3β
Outline: (§3)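 Compounds in DMSO (20 mM stock) were diluted 1:3 across 8 points. Each kinase phosphorylated a biotin-labelled peptide. Signal generated when donor and acceptor beads came close via antibody binding of phosphorylated substrate.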

B-Raf = molecular target: T7, B-Raf (Homo sapiens, UniProt P15056); test: AlphaScreen kinase assay, B-Raf; conditions: read-out: IC50, activity toward kinase B-Raf
T7 construct: purchased Upstate Biotechnology

c-Raf-1 = molecular target: T8, c-Raf-1 (Homo sapiens, UniProt P04049); test: AlphaScreen kinase assay, c-Raf-1; conditions: read-out: IC50, activity toward kinase c-Raf-1
T8 construct: purchased Upstate Biotechnology

Jak3 = molecular target: T9, Jak3 (Homo sapiens, UniProt P52333); test: AlphaScreen kinase assay, Jak3; conditions: read-out: IC50, activity toward kinase Jak3
T9 sequence (P52333 1-1124): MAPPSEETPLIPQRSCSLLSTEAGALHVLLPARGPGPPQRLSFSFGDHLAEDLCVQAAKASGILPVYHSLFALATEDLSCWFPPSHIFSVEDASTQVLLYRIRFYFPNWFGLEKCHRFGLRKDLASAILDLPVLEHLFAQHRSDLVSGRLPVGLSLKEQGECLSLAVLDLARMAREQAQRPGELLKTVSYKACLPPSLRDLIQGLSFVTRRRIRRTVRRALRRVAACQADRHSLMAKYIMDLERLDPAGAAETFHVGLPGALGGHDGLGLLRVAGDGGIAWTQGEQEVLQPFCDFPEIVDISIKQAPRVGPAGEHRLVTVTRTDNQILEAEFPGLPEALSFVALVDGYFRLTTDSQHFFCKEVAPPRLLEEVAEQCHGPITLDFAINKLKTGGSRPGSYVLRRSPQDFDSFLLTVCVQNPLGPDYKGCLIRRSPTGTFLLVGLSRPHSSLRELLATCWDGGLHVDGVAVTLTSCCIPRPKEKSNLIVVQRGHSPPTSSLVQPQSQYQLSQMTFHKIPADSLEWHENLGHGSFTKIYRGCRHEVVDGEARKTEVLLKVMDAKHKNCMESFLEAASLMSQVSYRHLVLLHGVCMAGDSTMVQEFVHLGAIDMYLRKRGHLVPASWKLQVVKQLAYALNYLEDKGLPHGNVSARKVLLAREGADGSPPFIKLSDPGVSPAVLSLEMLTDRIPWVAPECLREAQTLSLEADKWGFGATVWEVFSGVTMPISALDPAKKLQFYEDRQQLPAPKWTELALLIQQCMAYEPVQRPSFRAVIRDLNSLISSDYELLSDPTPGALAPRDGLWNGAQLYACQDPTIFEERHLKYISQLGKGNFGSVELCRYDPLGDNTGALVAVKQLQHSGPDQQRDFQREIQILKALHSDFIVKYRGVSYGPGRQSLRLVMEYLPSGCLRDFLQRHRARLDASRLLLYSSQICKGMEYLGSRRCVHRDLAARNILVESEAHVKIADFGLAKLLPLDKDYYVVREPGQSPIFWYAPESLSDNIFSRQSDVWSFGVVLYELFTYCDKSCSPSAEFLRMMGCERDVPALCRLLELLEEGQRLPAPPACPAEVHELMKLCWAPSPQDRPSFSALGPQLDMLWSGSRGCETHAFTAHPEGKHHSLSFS
Description: as §1, §2

Jnk3 = molecular target: T10, Jnk3 (Homo sapiens, UniProt P53779); test: AlphaScreen kinase assay, Jnk3; conditions: read-out: IC50, activity toward kinase Jnk3
T10 construct: purchased Upstate Biotechnology

Kit = molecular target: T11, Kit (Homo sapiens, UniProt P10721); test: AlphaScreen kinase assay, Kit; conditions: read-out: IC50, activity toward kinase Kit
T11 construct: P1332.N6 BI PTP KIT M552-K948-X COD; His6 (N); made in house; host or cells: E. coli (PTP1B co-expressed)

Pyk2 = molecular target: T12, Pyk2 (Homo sapiens, UniProt Q14289); test: AlphaScreen kinase assay, Pyk2; conditions: read-out: IC50, activity toward kinase Pyk2
T12 construct: purchased Upstate Biotechnology

FGFR1 = molecular target: T13, FGFR1 (Homo sapiens, UniProt P11362, C488A/C584S); test: AlphaScreen kinase assay, FGFR1; conditions: read-out: IC50, activity toward kinase FGFR
T13 construct: P1351.pET N6 BI-PTP FGFR A458-E765-X C488A, C584S; made in house; host or cells: E. coli (PTP1B co-expressed)

Met = molecular target: T14, Met (Homo sapiens, UniProt P08581); test: AlphaScreen kinase assay, Met; conditions: read-out: IC50, activity toward kinase Met
T14 construct: P1818.pETN6 BI-PTP MET G1056-G1364-X WT; His6 (N); made in house; host or cells: E. coli (PTP1B co-expressed)
Outline: as §3

IGF1R, sequence (P08069 31-1367): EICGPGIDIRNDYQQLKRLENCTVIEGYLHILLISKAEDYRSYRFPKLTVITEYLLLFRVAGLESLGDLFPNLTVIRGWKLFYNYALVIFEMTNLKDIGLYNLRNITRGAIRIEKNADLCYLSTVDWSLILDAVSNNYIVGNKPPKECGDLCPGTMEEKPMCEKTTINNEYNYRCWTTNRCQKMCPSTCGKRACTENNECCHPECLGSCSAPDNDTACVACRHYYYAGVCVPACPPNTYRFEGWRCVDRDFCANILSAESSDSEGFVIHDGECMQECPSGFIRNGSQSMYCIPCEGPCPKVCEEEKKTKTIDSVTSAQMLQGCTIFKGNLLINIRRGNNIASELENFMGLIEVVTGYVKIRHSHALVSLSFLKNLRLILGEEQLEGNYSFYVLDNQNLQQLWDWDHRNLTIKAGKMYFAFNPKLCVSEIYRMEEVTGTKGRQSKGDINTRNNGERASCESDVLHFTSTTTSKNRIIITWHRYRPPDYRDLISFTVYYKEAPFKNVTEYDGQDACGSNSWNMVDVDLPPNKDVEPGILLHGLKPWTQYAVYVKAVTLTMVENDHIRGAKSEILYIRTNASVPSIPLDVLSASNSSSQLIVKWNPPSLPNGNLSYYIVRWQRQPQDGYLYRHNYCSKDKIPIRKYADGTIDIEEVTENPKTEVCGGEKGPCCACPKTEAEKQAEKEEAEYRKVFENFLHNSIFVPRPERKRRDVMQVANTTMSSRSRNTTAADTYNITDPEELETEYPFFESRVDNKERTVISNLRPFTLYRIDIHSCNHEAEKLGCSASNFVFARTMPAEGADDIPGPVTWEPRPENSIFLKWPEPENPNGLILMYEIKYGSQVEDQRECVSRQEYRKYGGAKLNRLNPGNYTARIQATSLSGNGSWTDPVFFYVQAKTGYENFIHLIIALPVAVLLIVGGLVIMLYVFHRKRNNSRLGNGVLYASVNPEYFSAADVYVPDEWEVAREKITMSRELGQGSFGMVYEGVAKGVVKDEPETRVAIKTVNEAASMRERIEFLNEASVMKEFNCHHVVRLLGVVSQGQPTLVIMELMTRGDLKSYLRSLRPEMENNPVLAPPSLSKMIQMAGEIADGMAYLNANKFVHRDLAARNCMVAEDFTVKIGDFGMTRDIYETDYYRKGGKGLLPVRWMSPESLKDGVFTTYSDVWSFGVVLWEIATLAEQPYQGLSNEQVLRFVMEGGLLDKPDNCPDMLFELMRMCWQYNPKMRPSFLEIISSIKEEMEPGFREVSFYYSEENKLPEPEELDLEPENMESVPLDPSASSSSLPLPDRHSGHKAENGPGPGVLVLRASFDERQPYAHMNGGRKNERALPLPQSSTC
T6 sequence (P15056 with tags, fused parts or gaps V600E): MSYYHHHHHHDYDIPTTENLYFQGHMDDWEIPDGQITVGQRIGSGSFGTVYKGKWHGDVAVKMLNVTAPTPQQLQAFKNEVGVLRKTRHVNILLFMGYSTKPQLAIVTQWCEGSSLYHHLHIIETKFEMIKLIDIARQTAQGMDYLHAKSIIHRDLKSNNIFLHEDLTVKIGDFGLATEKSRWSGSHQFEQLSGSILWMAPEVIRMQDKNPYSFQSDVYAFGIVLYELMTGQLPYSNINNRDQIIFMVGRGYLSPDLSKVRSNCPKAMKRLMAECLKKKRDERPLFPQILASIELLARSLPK
T11 sequence (P10721 with tags, fused parts or gaps): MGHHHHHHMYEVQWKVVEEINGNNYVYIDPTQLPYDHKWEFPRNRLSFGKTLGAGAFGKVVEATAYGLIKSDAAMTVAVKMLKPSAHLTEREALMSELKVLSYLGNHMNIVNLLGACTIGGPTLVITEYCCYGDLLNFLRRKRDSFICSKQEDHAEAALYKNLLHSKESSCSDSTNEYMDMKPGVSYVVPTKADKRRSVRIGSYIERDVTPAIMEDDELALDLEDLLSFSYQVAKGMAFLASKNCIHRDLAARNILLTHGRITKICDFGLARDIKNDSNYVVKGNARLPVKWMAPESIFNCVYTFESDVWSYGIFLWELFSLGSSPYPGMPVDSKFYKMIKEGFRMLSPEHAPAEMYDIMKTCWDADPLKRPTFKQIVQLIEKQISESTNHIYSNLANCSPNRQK
Plk1, sequence (P53350 whole entry): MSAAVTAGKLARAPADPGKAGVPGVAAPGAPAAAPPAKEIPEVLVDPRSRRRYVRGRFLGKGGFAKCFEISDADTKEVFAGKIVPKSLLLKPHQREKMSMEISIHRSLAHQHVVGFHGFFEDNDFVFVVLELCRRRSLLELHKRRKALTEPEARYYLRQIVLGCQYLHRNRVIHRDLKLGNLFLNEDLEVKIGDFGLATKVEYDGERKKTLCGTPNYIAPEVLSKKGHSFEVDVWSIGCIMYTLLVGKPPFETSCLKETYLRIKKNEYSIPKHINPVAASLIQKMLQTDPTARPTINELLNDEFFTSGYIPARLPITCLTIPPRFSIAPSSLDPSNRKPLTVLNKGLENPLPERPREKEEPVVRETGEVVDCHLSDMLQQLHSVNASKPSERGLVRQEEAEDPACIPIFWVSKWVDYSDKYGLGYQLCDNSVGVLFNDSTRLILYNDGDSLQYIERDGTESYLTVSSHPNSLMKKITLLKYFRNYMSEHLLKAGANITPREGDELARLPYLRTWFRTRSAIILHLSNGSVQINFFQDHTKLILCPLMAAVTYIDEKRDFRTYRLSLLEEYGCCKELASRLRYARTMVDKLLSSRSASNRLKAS
T2 sequence (P35968 20-1356): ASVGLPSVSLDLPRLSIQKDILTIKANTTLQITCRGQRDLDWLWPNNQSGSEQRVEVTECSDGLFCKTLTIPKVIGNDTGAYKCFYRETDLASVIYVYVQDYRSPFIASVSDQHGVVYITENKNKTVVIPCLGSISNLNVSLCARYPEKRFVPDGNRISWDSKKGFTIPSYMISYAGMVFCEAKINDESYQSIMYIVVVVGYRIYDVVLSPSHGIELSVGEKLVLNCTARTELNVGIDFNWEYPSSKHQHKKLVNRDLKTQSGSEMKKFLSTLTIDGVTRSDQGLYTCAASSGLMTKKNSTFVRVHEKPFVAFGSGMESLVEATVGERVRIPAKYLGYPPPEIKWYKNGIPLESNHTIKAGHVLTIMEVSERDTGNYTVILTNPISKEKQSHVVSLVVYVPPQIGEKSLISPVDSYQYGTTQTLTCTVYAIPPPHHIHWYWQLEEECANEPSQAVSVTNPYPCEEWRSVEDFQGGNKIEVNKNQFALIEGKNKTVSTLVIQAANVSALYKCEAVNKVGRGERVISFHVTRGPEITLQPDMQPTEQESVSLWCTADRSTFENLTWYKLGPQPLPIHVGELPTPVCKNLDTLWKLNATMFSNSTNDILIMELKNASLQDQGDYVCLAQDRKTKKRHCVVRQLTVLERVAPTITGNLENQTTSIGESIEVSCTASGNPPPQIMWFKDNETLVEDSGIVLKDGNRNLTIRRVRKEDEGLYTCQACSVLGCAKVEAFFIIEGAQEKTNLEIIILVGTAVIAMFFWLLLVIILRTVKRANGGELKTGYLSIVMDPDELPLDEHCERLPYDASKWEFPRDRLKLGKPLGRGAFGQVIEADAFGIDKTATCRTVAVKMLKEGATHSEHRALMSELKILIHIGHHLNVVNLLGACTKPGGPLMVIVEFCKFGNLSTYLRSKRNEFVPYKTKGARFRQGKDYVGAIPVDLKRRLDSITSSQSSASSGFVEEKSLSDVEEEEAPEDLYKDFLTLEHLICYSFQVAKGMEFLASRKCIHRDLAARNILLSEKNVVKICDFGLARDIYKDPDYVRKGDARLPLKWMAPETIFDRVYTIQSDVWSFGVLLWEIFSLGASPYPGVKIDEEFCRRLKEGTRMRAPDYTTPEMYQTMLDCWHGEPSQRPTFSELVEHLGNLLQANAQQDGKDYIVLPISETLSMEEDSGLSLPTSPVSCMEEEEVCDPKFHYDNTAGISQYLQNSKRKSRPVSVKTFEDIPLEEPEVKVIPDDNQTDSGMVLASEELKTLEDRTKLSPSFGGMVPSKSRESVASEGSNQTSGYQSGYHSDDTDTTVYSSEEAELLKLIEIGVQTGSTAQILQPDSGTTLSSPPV
Gsk3β, sequence (P49841 whole entry): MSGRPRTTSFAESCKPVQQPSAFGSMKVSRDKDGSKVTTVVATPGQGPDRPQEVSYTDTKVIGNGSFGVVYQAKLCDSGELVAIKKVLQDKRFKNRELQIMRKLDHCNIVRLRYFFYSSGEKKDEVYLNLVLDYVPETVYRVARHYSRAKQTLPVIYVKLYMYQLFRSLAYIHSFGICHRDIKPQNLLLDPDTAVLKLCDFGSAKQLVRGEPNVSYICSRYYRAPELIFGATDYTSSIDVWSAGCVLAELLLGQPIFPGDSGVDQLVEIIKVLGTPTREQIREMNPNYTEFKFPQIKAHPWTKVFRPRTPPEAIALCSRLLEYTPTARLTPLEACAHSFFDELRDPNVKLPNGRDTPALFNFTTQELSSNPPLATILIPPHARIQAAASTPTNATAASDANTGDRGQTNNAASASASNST
T8 sequence (P04049 whole entry): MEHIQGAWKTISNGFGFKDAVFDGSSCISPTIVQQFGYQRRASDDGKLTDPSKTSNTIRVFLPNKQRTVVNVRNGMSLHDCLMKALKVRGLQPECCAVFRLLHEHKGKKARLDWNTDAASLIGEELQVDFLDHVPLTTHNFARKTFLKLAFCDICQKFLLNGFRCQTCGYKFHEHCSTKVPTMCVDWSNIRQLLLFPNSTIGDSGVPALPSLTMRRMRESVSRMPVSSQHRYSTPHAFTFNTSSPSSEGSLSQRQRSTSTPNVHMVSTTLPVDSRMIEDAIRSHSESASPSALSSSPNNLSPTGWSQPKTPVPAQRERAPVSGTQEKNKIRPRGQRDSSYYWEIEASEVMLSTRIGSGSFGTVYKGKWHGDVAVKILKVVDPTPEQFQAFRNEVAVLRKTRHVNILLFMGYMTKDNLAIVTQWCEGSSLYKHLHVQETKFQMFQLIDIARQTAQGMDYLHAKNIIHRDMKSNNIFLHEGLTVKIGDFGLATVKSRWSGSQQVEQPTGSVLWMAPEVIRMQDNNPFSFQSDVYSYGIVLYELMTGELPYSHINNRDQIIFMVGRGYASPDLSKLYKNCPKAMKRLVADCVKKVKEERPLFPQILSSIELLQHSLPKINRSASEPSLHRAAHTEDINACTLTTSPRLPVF

Row | IC50 (Stk6) | IC50 (Kdr) | IC50 (IGF1R) | IC50 (Ret) | IC50 (IKK beta) | IC50 (B-Raf V600E) | IC50 (Plk1) | IC50 (Jak3) | IC50 (Kit) | SMILES | also measured
1 | ≤ 10 µM | ≤ 10 µM | ≤ 10 µM |  |  |  |  |  |  | COc1ccc(-c2cnc3[nH]ccc3c2)cc1OC [Compound P-0212] | 
2 |  | ≤ 10 µM |  | ≤ 10 µM | ≤ 10 µM | ≤ 10 µM | ≤ 10 µM |  |  | NC(=O)c1cccc(-c2ccnc3[nH]cc(C(=O)c4ccc(Cl)cc4)c23)c1 [Compound P-0135] | IC50 (Btk): ≤ 10 µM; IC50 (Gsk3β): ≤ 10 µM
3 |  |  |  | ≤ 10 µM |  | ≤ 10 µM | ≤ 10 µM | ≤ 10 µM |  | O=C(c1cc(O)ccc1F)c1c[nH]c2nccc(-c3ccccc3)c12 [Compound P-0863] | IC50 (B-Raf): ≤ 10 µM; IC50 (c-Raf-1): ≤ 10 µM
4 | ≤ 10 µM | ≤ 10 µM | ≤ 10 µM |  |  |  |  |  | ≤ 10 µM | COc1cccc(-c2cnc3[nH]ccc3c2)c1 [Compound P-0213] | IC50 (Jnk3): ≤ 10 µM
5 | ≤ 10 µM | ≤ 10 µM |  |  | ≤ 10 µM |  | ≤ 10 µM |  |  | c1cc(-c2noc(C3CC3)n2)c2cc[nH]c2n1 [Compound P-0128] | 
6 |  |  |  |  |  | ≤ 10 µM | ≤ 10 µM | ≤ 10 µM |  | CC(C)S(=O)(=O)Nc1ccc(F)c(C(O)c2c[nH]c3ncc(Br)cc23)c1F (stereo not shown) [Compound P-0178] | IC50 (B-Raf): ≤ 10 µM; IC50 (c-Raf-1): ≤ 10 µM; IC50 (Pyk2): ≤ 10 µM; IC50 (FGFR1): ≤ 10 µM
7 | ≤ 10 µM |  |  |  |  | ≤ 10 µM | ≤ 10 µM | ≤ 10 µM |  | OCc1cccc(-c2ccnc3[nH]cc(Sc4ccccc4)c23)c1 [Compound P-0146] | IC50 (Met): ≤ 10 µM
8 | ≤ 10 µM | ≤ 10 µM | ≤ 10 µM |  |  |  |  |  | ≤ 10 µM | OCc1cccc(-c2cnc3[nH]ccc3c2)c1 [Compound P-0157] | 
9 | ≤ 10 µM | ≤ 10 µM | ≤ 10 µM |  |  |  |  |  | ≤ 10 µM | Nc1cccc(-c2cnc3[nH]ccc3c2)c1 [Compound P-0136] | 
10 |  | ≤ 10 µM |  | ≤ 10 µM | ≤ 10 µM | ≤ 10 µM | ≤ 10 µM |  |  | NC(=O)c1ccc(-c2ccnc3[nH]cc(C(=O)c4ccc(Cl)cc4)c23)cc1 [Compound P-0085] | IC50 (Btk): ≤ 10 µM; IC50 (Gsk3β): ≤ 10 µM
